Test results from patent US8551937B2, “Peptide having an extending action for half-life of object peptide in plasma” (priority 2008, dated 2013).
Where a SMILES comes first, the peptide text is derived from it.

Assay: Motilin immunoreactivity concentration in plasma, half-life after intravenous administration (Example 8)
Settings: male, SD, rat, in vivo, iv, 10 nmol/kg
Description: The experiment was carried out using rats into which polyethylene tube (PE-50 manufactured by Clay Adams) was inserted into thigh artery under an anesthetized condition with Nembutal. As to a test system, male SD strain rats (Nippon Charles River) of 7 weeks age were used where one group comprised 3 rats. Human motilin or a derivative thereof in a dose of 10 nmol/kg was administered into tail vein of the rat and the blood before the administration and until 60 minutes after the administration was periodically collected by a polyethylene tube inserted into the thigh artery. To the collected blood were added EDTA (manufactured by Dojin Laboratories) and aprotinin (manufactured by Bayer) as a stabilizer and an anti-coagulant, respectively and the plasma was separated therefrom by centrifugal separation. Motilin immunoreactivity concentration in plasma was measured by a competitive radioimmunoassay (RIA) (FIG. 8). At that time, a rabbit polyclonal antibody (#870623) which specifically recognizes the amino acid numbers 1 to 12 of native motilin shown by SEQ ID No: 102 was used as an antibody and, as a labeled compound, ^125I-[Tyr^7] human motilin was used.

| half-life [min] | SMILES |
| --- | --- |
| 5.47 | CC[C@H](C)[C@H](NC(=O)[C@@H]1CCCN1C(=O)[C@@H](NC(=O)[C@@H](N)Cc1ccccc1)C(C)C)C(=O)N[C@@H](Cc1ccccc1)C(=O)N[C@H](C(=O)N[C@@H](Cc1ccc(O)cc1)C(=O)NCC(=O)N[C@@H](CCC(=O)O)C(=O)N[C@@H](CC(C)C)C(=O)N[C@@H](CCC(N)=O)C(=O)N[C@@H](CCCNC(=N)N)C(=O)N[C@H](C(=O)N[C@@H](CCC(N)=O)C(=O)N[C@@H](CCC(N)=O)C(=O)N[C@@H](CCCNC(=N)N)C(=O)N[C@@H](CCCCN)C(=O)N[C@@H](CC(N)=O)C(=O)N[C@@H](CO)C(=O)N[C@@H](CCCCN)C(=O)N[C@@H](CCCCN)C(=O)N1CCC[C@H]1C(=O)N1CCC[C@H]1C(=O)N[C@@H](C)C(=O)N[C@@H](CCCCN)C(=O)N[C@@H](CC(C)C)C(=O)N[C@@H](CCC(N)=O)C(=O)N1CCC[C@H]1C(=O)N[C@@H](CCCNC(=N)N)C(=O)O)C(C)C)[C@@H](C)O [Chimeric motilin (T)(MG-17E/N)] (H-FVPIFTYGELQRVQQRKNSKKPPAKLQPR-OH; N-terminus and C-terminus assumed) |
| 5.66 | CC[C@H](C)[C@H](NC(=O)[C@@H]1CCCN1C(=O)[C@@H](NC(=O)[C@@H](N)Cc1ccccc1)C(C)C)C(=O)N[C@@H](Cc1ccccc1)C(=O)N[C@H](C(=O)N[C@@H](Cc1ccc(O)cc1)C(=O)NCC(=O)N[C@@H](CCC(=O)O)C(=O)N[C@@H](CC(C)C)C(=O)N[C@@H](CCC(N)=O)C(=O)N[C@@H](CCCNC(=N)N)C(=O)N[C@H](C(=O)N[C@@H](CCC(N)=O)C(=O)N[C@@H](CCC(N)=O)C(=O)N[C@@H](CCCNC(=N)N)C(=O)N[C@@H](CCCCN)C(=O)N[C@@H](CCC(N)=O)C(=O)N[C@@H](CO)C(=O)N[C@@H](CCCCN)C(=O)N[C@@H](CCCCN)C(=O)N1CCC[C@H]1C(=O)N1CCC[C@H]1C(=O)N[C@@H](C)C(=O)N[C@@H](CCCCN)C(=O)N[C@@H](CC(C)C)C(=O)N[C@@H](CCC(N)=O)C(=O)N1CCC[C@H]1C(=O)N[C@@H](CCCNC(=N)N)C(=O)O)C(C)C)[C@@H](C)O [Chimeric motilin (U)(MG-17E/Q)] (H-FVPIFTYGELQRVQQRKQSKKPPAKLQPR-OH; N-terminus and C-terminus assumed) |
| 8.94 | CC[C@H](C)[C@H](NC(=O)[C@@H]1CCCN1C(=O)[C@@H](NC(=O)[C@@H](N)Cc1ccccc1)C(C)C)C(=O)N[C@@H](Cc1ccccc1)C(=O)N[C@H](C(=O)N[C@@H](Cc1ccc(O)cc1)C(=O)NCC(=O)N[C@@H](CCC(=O)O)C(=O)N[C@@H](CC(C)C)C(=O)N[C@@H](CCC(N)=O)C(=O)N[C@@H](CCCNC(=N)N)C(=O)N[C@H](C(=O)N[C@@H](CCC(N)=O)C(=O)N[C@@H](CCC(N)=O)C(=O)N[C@@H](CCCNC(=N)N)C(=O)N[C@@H](CCCCN)C(=O)N[C@@H](CCC(=O)O)C(=O)N[C@@H](CO)C(=O)N[C@@H](CCCCN)C(=O)N[C@@H](CCCCN)C(=O)N[C@@H](C)C(=O)N[C@@H](CCCCN)C(=O)N[C@@H](CC(C)C)C(=O)N[C@@H](C)C(=O)N[C@@H](C)C(=O)N[C@@H](CC(C)C)C(=O)N[C@@H](CCCCN)C(=O)N[C@@H](C)C(=O)O)C(C)C)[C@@H](C)O [Chimeric motilin (V) (MG-dPPH1)] (H-FVPIFTYGELQRVQQRKESKKAKLAALKA-OH; N-terminus and C-terminus assumed) |
| 10.1 | CC[C@H](C)[C@H](NC(=O)[C@@H]1CCCN1C(=O)[C@@H](NC(=O)[C@@H](N)Cc1ccccc1)C(C)C)C(=O)N[C@@H](Cc1ccccc1)C(=O)N[C@H](C(=O)N[C@@H](Cc1ccc(O)cc1)C(=O)NCC(=O)N[C@@H](CCC(=O)O)C(=O)N[C@@H](CC(C)C)C(=O)N[C@@H](CCC(N)=O)C(=O)N[C@@H](CCCNC(=N)N)C(=O)N[C@H](C(=O)N[C@@H](CCC(N)=O)C(=O)N[C@@H](CCC(N)=O)C(=O)N[C@@H](CCCNC(=N)N)C(=O)N[C@@H](CCCCN)C(=O)N[C@@H](CC(=O)O)C(=O)N[C@@H](CO)C(=O)N[C@@H](CCCCN)C(=O)N[C@@H](CCCCN)C(=O)N1CCC[C@H]1C(=O)N1CCC[C@H]1C(=O)N[C@@H](C)C(=O)N[C@@H](CCCCN)C(=O)N[C@@H](CC(C)C)C(=O)N[C@@H](CCC(N)=O)C(=O)N1CCC[C@H]1C(=O)N[C@@H](CCCNC(=N)N)C(=O)O)C(C)C)[C@@H](C)O [Chimeric motilin (V)(MG-ES/DS)] (H-FVPIFTYGELQRVQQRKDSKKPPAKLQPR-OH; N-terminus and C-terminus assumed) |
| 9.94 | CC[C@H](C)[C@H](NC(=O)[C@@H]1CCCN1C(=O)[C@@H](NC(=O)[C@@H](N)Cc1ccccc1)C(C)C)C(=O)N[C@@H](Cc1ccccc1)C(=O)N[C@H](C(=O)N[C@@H](Cc1ccc(O)cc1)C(=O)NCC(=O)N[C@@H](CCC(=O)O)C(=O)N[C@@H](CC(C)C)C(=O)N[C@@H](CCC(N)=O)C(=O)N[C@@H](CCCNC(=N)N)C(=O)N[C@H](C(=O)N[C@@H](CCC(N)=O)C(=O)N[C@@H](CCC(N)=O)C(=O)N[C@@H](CCCNC(=N)N)C(=O)N[C@@H](CCCCN)C(=O)N[C@@H](CCC(=O)O)C(=O)N[C@@H](CO)C(=O)N[C@@H](CCCCN)C(=O)N[C@@H](CCCCN)C(=O)N1CCC[C@H]1C(=O)N1CCC[C@H]1C(=O)N[C@@H](C)C(=O)N[C@@H](CCCCN)C(=O)N[C@@H](CC(C)C)C(=O)N[C@@H](C)C(=O)N[C@@H](C)C(=O)N[C@@H](CC(C)C)C(=O)N[C@@H](CCCCN)C(=O)N[C@@H](C)C(=O)O)C(C)C)[C@@H](C)O [Chimeric motilin (VI)(MG-H1)] (H-FVPIFTYGELQRVQQRKESKKPPAKLAALKA-OH; N-terminus and C-terminus assumed) |
| 12.8 | CC[C@H](C)[C@H](NC(=O)[C@@H]1CCCN1C(=O)[C@@H](NC(=O)[C@@H](N)Cc1ccccc1)C(C)C)C(=O)N[C@@H](Cc1ccccc1)C(=O)N[C@H](C(=O)N[C@@H](Cc1ccc(O)cc1)C(=O)NCC(=O)N[C@@H](CCC(=O)O)C(=O)N[C@@H](CC(C)C)C(=O)N[C@@H](CCC(N)=O)C(=O)N[C@@H](CCCNC(=N)N)C(=O)N[C@H](C(=O)N[C@@H](CCC(N)=O)C(=O)N[C@@H](CCC(N)=O)C(=O)N[C@@H](CCCNC(=N)N)C(=O)N[C@@H](CCCCN)C(=O)N[C@@H](CCC(=O)O)C(=O)N[C@@H](CO)C(=O)N[C@@H](CCCCN)C(=O)N[C@@H](CCCCN)C(=O)N1CCC[C@H]1C(=O)N1CCC[C@H]1C(=O)N[C@@H](C)C(=O)N[C@@H](CCC(=O)O)C(=O)N[C@@H](CC(C)C)C(=O)N[C@@H](C)C(=O)N[C@@H](C)C(=O)N[C@@H](CC(C)C)C(=O)N[C@@H](CCC(=O)O)C(=O)N[C@@H](C)C(=O)O)C(C)C)[C@@H](C)O [Chimeric motilin (VII)(MG-H3)] (H-FVPIFTYGELQRVQQRKESKKPPAELAALEA-OH; N-terminus and C-terminus assumed) |
